From ChEMBL document CHEMBL4052762, “Synthesis and biological evaluation of pyrrole-based chalcones as CYP1 enzyme inhibitors, for possible prevention of cancer and overcoming cisplatin resistance” (Bioorg Med Chem Lett, 2017)

Columns and labels:
[1] = target: T1, Aryl hydrocarbon receptor (Homo sapiens, UniProt P35869); assay: Antagonist activity at human AhR expressed in Saccharomyces cerevisiae W303-1A (ATCC 208352) transformed with an episomal plasmid containing a minimal CYC1 promoter, with a concatemer of five XRE enhancer sequences, linked to eGFP reporter gene and co-expressing ARNT assessed as inhibition of B[a]P agonist induced XRE-driven eGFP expression by measuring eGFP units at 20 uM after 18 hrs by …
T1 sequence (P35869 whole entry): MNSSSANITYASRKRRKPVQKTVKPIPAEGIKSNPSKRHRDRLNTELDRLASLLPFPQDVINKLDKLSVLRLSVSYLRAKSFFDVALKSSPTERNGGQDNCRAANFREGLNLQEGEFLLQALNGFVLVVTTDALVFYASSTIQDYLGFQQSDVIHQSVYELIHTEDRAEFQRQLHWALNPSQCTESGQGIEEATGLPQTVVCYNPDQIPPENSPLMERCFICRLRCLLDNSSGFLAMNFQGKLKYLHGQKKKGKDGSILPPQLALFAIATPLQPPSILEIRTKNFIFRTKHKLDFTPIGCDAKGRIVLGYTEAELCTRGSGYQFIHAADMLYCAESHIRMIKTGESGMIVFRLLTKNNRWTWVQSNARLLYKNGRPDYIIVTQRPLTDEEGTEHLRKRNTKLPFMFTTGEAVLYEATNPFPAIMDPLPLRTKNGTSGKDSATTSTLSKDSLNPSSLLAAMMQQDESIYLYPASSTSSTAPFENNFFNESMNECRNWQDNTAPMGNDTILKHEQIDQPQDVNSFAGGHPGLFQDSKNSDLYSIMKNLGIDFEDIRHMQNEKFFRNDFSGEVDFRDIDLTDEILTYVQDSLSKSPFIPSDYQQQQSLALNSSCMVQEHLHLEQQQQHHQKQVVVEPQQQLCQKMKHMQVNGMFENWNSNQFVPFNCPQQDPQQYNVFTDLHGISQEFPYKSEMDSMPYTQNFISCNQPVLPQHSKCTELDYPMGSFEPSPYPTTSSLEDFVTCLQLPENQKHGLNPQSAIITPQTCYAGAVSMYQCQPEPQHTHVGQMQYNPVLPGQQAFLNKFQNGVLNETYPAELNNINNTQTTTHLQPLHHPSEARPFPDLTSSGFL

[2] = target: T1, Aryl hydrocarbon receptor; assay: Antagonist activity at human AhR expressed in Saccharomyces cerevisiae W303-1A (ATCC 208352) transformed with an episomal plasmid containing a minimal CYC1 promoter, with a concatemer of five XRE enhancer sequences, linked to eGFP reporter gene and co-expressing ARNT assessed as inhibition of B[a]P agonist induced XRE-driven eGFP expression by measuring eGFP units at 10 uM after 18 hrs by …
[3] = target: T1, Aryl hydrocarbon receptor; assay: Antagonist activity at human AhR expressed in Saccharomyces cerevisiae W303-1A (ATCC 208352) transformed with an episomal plasmid containing a minimal CYC1 promoter, with a concatemer of five XRE enhancer sequences, linked to eGFP reporter gene and co-expressing ARNT assessed as inhibition of B[a]P agonist induced XRE-driven eGFP expression by measuring eGFP units at 5 uM after 18 hrs by …
Cytochrome P450 1A1 [4] = target: T2, Cytochrome P450 1A1 (Homo sapiens, UniProt P04798); assay: Inhibition of human CYP1A1 bound to yeast microsomal membrane using 7-ethoxyresorufin as substrate after 10 mins by fluorescence assay
T2 sequence (P04798 whole entry): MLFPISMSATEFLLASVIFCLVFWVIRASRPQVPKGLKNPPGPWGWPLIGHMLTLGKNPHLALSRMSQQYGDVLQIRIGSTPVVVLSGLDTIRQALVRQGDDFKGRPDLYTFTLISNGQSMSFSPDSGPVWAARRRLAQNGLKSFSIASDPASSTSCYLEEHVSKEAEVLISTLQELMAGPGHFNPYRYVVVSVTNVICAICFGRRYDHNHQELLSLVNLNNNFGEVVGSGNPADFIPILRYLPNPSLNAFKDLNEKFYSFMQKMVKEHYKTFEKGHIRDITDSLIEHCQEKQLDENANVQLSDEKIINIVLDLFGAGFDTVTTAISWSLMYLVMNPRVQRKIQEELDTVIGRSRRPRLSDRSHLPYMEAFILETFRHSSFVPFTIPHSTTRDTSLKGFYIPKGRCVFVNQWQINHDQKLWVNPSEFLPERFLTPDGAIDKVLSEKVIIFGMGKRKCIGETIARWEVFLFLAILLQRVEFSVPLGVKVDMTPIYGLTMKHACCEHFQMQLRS

Cytochrome P450 2C9 [5] = target: T3, Cytochrome P450 2C9 (Homo sapiens, UniProt P11712); assay: Inhibition of human CYP2C9 bound to yeast microsomal membrane using 3-cyano-7-ethoxycoumarin as substrate after 10 mins by fluorescence assay; assay type: ADME
T3 sequence (P11712 whole entry): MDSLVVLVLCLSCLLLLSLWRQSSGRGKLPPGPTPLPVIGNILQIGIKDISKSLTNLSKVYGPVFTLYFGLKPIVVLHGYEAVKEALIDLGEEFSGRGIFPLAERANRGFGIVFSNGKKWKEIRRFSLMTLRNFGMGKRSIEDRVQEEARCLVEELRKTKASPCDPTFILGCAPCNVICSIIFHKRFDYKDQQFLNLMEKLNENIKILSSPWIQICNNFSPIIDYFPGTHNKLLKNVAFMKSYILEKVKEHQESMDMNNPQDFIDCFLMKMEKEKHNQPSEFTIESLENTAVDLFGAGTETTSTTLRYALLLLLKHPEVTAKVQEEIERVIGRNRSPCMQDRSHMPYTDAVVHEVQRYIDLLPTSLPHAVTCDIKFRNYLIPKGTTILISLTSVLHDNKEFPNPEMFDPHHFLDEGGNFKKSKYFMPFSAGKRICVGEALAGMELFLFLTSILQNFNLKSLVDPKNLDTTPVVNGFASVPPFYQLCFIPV

Cytochrome P450 1A1 [6] = target: T2, Cytochrome P450 1A1; assay: Inhibition of human CYP1A1 expressed in HEK293 cells using fluorogenic substrate 7-ethoxyresorufin as substrate preincubated for 30 mins followed by substrate addition measured for 60 mins by fluorescence assay; assay type: cell-based
Cytochrome P450 1B1 = target: T4, Cytochrome P450 1B1 (Homo sapiens, UniProt Q16678); assay: Inhibition of human CYP1B1 expressed in HEK293 cells using fluorogenic 7-ethoxyresorufin as substrate preincubated for 30 mins followed by substrate addition measured for 60 mins by fluorescence assay; assay type: cell-based
T4 sequence (Q16678 whole entry): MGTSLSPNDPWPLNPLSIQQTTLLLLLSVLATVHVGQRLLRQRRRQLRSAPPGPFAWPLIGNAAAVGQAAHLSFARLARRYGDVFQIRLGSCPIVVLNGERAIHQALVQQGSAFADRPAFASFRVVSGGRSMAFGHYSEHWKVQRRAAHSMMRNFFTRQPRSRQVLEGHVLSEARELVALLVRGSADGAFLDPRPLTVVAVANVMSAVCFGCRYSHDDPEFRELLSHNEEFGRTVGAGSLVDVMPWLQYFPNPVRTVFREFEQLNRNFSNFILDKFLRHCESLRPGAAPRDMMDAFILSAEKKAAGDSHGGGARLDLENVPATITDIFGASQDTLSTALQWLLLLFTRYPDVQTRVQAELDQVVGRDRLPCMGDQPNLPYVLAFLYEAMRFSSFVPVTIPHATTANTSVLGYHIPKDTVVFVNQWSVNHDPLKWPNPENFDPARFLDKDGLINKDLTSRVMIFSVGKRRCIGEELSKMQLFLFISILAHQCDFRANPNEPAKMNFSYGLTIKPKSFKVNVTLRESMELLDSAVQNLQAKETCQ

Cytochrome P450 1A2 = target: T5, Cytochrome P450 1A2 (Homo sapiens, UniProt P05177); assay: Inhibition of human CYP1A2 expressed in HEK293 cells using fluorogenic 3-cyano-7-ethoxycoumarin as substrate preincubated for 30 mins followed by substrate addition measured for 60 mins by fluorescence assay; assay type: cell-based
T5 sequence (P05177 whole entry): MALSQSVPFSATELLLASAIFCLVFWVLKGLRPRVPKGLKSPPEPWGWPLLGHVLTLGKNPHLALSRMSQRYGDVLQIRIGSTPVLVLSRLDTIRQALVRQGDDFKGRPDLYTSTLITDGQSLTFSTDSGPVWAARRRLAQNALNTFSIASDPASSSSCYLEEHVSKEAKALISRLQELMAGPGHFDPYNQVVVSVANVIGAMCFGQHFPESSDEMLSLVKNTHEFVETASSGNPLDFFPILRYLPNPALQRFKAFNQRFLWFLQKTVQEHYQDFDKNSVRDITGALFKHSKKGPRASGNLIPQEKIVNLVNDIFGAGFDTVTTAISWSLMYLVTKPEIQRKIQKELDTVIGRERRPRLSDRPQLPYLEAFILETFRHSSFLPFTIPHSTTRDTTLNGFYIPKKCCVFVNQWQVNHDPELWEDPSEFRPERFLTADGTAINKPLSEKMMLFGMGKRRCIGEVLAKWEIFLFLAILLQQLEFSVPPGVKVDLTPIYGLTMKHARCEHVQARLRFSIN

Cytochrome P450 2C9 [7] = target: T3, Cytochrome P450 2C9; assay: Inhibition of human CYP2C9 expressed in HEK293 cells using fluorogenic 3-cyano-7-ethoxycoumarin as preincubated for 30 mins followed by substrate addition measured for 60 mins by fluorescence assay; assay type: ADME, cell-based

O=C(/C=C/c1ccc(OC(F)(F)F)cc1)c1ccc[nH]1
Activity [1]: 955 U | Activity [2]: 955 U | Activity [3]: 955 U | IC50 (Cytochrome P450 1A1 [4]): > 20 µM | IC50 (Cytochrome P450 2C9 [5]): > 20 µM | IC50 (Cytochrome P450 1A1 [6]): > 20 µM | IC50 (Cytochrome P450 1B1): > 20 µM | IC50 (Cytochrome P450 1A2): > 20 µM | IC50 (Cytochrome P450 2C9 [7]): > 20 µM

COc1ccccc1/C=C/C(=O)c1ccc[nH]1
Activity [1]: 120 U | Activity [2]: 150 U | Activity [3]: 220 U | IC50 (Cytochrome P450 1A1 [4]): 0.9 µM | IC50 (Cytochrome P450 2C9 [5]): > 20 µM | IC50 (Cytochrome P450 1A1 [6]): 1.2 µM | IC50 (Cytochrome P450 1B1): 1.2 µM | IC50 (Cytochrome P450 1A2): 1.1 µM | IC50 (Cytochrome P450 2C9 [7]): > 10 µM

O=C(/C=C/c1ccccc1Cl)c1ccc[nH]1
Activity [1]: 285 U | Activity [2]: 455 U | Activity [3]: 770 U | IC50 (Cytochrome P450 1A1 [4]): 9.1 µM | IC50 (Cytochrome P450 2C9 [5]): > 20 µM | IC50 (Cytochrome P450 1A1 [6]): > 20 µM | IC50 (Cytochrome P450 1B1): 0.25 µM | IC50 (Cytochrome P450 1A2): 0.9 µM | IC50 (Cytochrome P450 2C9 [7]): > 10 µM
